# Laboratory results taken from publication PMC12281424, “A Rac-specific competitive inhibitor of guanine nucleotide binding reduces metastasis in triple-negative breast cancer” (Cell Reports Medicine, 2025).
# Legend:
# Cyclooxygenase COX-2 = Cyclooxygenase COX-2 (Homo sapiens, UniProt P35354); test: Safety screen; format: biochemical
# Procedure: (§1) Blood cell counts, kinase profiler, safety screen, bacterial cytotoxicity, Ames, micronucleus assays were performed by the company Eurofins (France). The kinase profiler was performed by the company Eurofins (Discovery, Panlab and Cerep).
# Phosphodiesterase PDE4 = test: Safety screen; format: biochemical, human
# Procedure: (§2) Blood cell counts, kinase profiler, safety screen, bacterial cytotoxicity, Ames, micronucleus assays were performed by the company Eurofins (France).
# [1] = system: GABAA, Flunitrazepam, Central; test: Safety screen; format: binding, rat
# Procedure: as §2
# [2] = target: Transporter, Dopamine (DAT) (Homo sapiens, UniProt Q01959); test: Safety screen; format: binding
# Procedure: as §2
# Abl (M351T)(h) = Abl (M351T)(h) (Homo sapiens, UniProt P00519, M351T); test: Kinase Profiler; format: biochemical
# Procedure: (§3) The kinase profiler was performed by the company Eurofins (Discovery, Panlab and Cerep).
# Abl(Y253F)(h) = Abl(Y253F)(h) (Homo sapiens, UniProt P00519, Y253F); test: Kinase Profiler; format: biochemical
# Procedure: as §3
# BIKe(h) = BIKe(h) (Homo sapiens, UniProt Q9NSY1); test: Kinase Profiler; format: biochemical
# Procedure: as §1
# CaMKI(h) = CaMKI(h) (Homo sapiens, UniProt Q14012); test: Kinase Profiler; format: biochemical
# Procedure: as §1
# CK1δ(h) = CK1δ(h) (Homo sapiens, UniProt P48730); test: Kinase Profiler; format: biochemical
# Procedure: as §3
# DAPK2(h) = DAPK2(h) (Homo sapiens, UniProt Q9UIK4); test: Kinase Profiler; format: biochemical
# Procedure: as §1
# DMPK(h) = DMPK(h) (Homo sapiens, UniProt Q09013); test: Kinase Profiler; format: biochemical
# Procedure: as §1
# EphA2(h) = EphA2(h) (Homo sapiens, UniProt P29317); test: Kinase Profiler; format: biochemical
# Procedure: as §1
# JAK2(h) = JAK2(h) (Homo sapiens, UniProt O60674); test: Kinase Profiler; format: biochemical
# Procedure: as §3
# KDR(h) = KDR(h) (Homo sapiens, UniProt P35968); test: Kinase Profiler; format: biochemical
# Procedure: as §3
# MAP4K3(h) = MAP4K3(h) (Homo sapiens, UniProt Q8IVH8); test: Kinase Profiler; format: biochemical
# Procedure: as §3
# MOK(h) = MOK(h) (Homo sapiens, UniProt Q9UQ07); test: Kinase Profiler; format: biochemical
# Procedure: as §3
# PKA(h) = PKA(h) (Homo sapiens, UniProt P17612); test: Kinase Profiler; format: biochemical
# Procedure: as §1
# PKCθ(h) = PKCθ(h) (Homo sapiens, UniProt Q04759); test: Kinase Profiler; format: biochemical
# Procedure: as §3
# TAO3(h) = TAO3(h) (Homo sapiens, UniProt Q9H2K8); test: Kinase Profiler; format: biochemical
# Procedure: as §1
# Tec(h) activated = Tec(h) activated (Homo sapiens, UniProt P42680); test: Kinase Profiler; format: biochemical
# Procedure: as §1
# ULK2(h) = ULK2(h) (Homo sapiens, UniProt Q8IYT8); test: Kinase Profiler; format: biochemical
# Procedure: as §1
# WNK2(h) = WNK2(h) (Homo sapiens, UniProt Q9Y3S1); test: Kinase Profiler; format: biochemical
# Procedure: as §3
# PI3K (p110d/p85a)(h) = PI3K (p110d/p85a)(h) (Homo sapiens, UniProt O00329); test: Kinase Profiler; format: biochemical
# Procedure: as §1
# PI3K (p110b/p85a)(m) = PI3K (p110b/p85a)(m) (Mus musculus, UniProt Q8BTI9); test: Kinase Profiler; format: biochemical
# PI3K (p110b/p85a)(m), sequence (Q8BTI9 whole entry): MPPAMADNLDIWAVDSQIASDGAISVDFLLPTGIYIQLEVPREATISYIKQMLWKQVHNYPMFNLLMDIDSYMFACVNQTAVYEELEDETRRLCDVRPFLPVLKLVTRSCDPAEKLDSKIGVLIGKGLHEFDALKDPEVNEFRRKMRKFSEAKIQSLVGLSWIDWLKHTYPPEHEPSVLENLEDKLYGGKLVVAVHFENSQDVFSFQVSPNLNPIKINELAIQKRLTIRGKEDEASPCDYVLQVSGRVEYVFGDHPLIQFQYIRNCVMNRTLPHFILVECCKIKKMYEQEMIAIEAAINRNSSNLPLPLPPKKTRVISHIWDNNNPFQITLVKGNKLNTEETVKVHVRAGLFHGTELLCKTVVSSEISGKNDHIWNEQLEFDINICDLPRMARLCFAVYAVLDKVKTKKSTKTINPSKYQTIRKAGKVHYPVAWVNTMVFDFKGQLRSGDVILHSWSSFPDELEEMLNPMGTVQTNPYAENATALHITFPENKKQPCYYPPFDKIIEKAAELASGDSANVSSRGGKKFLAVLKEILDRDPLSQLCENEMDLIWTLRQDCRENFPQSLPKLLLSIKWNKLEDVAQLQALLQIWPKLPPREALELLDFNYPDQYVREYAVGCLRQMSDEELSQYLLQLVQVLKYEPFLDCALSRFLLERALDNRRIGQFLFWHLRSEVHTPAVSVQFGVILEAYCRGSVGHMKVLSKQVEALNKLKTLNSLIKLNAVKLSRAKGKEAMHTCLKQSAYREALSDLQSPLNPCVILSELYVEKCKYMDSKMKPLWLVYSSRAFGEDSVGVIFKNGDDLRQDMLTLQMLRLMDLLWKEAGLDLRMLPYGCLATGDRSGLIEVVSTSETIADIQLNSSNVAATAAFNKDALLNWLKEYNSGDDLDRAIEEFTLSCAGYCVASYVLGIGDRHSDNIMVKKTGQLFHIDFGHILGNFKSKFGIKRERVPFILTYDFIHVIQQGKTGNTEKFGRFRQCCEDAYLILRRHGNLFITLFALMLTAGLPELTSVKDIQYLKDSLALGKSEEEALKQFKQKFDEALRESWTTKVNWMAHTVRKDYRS
# PI3K (p110b/p85a)(m), sequence (P26450 2-724 partner): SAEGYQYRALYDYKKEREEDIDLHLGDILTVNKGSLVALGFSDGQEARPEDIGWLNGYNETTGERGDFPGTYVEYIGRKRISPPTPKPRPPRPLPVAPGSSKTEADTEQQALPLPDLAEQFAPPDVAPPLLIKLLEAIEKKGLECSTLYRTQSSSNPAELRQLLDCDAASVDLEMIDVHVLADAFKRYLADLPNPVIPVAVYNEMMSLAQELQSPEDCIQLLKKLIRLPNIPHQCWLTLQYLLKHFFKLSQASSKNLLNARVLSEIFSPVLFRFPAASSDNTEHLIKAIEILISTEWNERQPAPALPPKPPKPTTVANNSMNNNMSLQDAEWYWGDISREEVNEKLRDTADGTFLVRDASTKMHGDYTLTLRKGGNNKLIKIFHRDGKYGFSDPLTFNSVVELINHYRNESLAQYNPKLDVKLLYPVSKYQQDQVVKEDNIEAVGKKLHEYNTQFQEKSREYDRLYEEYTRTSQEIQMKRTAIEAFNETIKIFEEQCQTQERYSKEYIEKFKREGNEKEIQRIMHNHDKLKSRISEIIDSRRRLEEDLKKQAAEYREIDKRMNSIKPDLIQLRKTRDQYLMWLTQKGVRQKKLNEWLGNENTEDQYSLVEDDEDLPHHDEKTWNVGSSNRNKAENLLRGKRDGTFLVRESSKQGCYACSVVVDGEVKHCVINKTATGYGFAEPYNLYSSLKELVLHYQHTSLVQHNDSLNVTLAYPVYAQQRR
# Procedure: as §1
# TAO3(h), sequence (Q9H2K8 whole entry): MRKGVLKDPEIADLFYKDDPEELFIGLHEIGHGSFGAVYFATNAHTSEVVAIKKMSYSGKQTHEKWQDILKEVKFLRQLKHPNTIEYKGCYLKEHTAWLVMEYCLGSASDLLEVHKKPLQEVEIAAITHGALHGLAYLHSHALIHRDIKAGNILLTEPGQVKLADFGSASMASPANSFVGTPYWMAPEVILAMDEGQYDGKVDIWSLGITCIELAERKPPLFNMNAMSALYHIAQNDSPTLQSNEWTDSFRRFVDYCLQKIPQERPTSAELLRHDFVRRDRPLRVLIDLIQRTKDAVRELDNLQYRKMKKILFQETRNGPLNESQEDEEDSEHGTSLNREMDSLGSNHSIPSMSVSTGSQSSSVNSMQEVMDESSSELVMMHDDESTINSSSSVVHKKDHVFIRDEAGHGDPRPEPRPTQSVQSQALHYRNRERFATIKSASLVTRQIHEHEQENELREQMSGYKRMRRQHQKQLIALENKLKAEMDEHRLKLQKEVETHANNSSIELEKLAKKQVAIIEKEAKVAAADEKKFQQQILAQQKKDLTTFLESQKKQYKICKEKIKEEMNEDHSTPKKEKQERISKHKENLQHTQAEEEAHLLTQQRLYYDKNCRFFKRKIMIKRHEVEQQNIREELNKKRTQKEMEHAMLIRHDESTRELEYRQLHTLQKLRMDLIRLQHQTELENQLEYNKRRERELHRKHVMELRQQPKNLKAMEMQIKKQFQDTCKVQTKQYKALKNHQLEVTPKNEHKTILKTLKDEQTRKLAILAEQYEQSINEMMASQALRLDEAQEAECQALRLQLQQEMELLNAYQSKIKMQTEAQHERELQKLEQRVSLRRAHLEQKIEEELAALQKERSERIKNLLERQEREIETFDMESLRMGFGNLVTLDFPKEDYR
# JAK2(h), sequence (O60674 whole entry): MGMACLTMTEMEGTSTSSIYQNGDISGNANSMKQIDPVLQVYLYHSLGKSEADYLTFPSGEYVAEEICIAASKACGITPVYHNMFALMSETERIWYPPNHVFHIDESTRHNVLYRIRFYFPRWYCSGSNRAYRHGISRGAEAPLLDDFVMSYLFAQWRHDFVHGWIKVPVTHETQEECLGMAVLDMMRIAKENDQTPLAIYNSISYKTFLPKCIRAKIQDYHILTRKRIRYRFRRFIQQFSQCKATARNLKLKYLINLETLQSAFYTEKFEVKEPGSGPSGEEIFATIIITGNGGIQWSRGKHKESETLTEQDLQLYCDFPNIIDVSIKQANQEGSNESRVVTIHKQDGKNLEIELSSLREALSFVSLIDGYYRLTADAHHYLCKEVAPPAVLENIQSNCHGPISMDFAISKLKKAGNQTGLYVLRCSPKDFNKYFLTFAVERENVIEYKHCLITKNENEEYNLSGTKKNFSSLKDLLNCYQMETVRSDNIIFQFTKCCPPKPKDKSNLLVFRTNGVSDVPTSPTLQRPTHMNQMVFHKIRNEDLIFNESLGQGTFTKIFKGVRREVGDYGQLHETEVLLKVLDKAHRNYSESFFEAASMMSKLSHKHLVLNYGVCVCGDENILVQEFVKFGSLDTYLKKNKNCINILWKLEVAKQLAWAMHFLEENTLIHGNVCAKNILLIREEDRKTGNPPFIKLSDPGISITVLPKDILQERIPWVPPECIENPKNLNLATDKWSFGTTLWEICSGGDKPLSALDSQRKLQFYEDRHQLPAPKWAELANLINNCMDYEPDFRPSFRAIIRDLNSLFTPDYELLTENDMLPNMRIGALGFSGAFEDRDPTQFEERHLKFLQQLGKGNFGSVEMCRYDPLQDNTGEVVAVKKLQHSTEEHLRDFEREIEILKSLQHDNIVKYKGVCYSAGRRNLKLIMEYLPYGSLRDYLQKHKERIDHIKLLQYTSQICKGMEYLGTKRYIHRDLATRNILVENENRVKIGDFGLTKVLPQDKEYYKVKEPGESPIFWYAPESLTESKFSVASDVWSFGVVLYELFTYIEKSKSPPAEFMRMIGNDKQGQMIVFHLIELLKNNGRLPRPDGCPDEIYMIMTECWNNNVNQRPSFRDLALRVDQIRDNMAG
# DAPK2(h), sequence (Q9UIK4 whole entry): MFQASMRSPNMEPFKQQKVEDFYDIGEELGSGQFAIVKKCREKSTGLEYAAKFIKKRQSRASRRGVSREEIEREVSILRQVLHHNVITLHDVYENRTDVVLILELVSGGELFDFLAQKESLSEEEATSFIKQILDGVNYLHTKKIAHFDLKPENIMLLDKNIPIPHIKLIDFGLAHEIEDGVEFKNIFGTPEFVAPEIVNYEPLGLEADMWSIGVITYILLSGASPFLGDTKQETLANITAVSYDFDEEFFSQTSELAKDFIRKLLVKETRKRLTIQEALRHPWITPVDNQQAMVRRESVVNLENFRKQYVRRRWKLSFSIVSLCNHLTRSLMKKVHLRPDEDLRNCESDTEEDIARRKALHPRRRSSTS
# PKCθ(h), sequence (Q04759 whole entry): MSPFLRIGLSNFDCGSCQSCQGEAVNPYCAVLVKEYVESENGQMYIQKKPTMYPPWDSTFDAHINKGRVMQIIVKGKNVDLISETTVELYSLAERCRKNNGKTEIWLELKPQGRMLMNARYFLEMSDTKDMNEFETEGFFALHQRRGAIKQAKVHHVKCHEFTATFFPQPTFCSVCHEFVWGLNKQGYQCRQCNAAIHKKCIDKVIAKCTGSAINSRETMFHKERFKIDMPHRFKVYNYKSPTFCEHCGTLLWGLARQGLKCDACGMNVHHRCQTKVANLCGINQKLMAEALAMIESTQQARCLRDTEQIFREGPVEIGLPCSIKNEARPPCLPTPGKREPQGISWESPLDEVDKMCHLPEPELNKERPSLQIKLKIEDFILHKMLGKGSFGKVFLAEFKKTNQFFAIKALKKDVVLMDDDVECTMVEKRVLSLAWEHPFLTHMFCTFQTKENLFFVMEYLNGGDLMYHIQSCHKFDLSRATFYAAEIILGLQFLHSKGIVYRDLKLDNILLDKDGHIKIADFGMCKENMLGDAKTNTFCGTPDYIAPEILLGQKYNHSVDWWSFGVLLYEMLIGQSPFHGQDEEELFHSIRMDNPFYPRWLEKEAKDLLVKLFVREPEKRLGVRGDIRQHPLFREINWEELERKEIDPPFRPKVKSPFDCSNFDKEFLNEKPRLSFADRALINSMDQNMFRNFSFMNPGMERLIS
smiles,measurement,setting,value
COc1ccc(OC)c(NS(=O)(=O)c2ccc(NC(=O)CCSc3ccc(C)cc3)cc2)c1 [Compound A41],% inh.,Cyclooxygenase COX-2,11%
same,% inh.,Phosphodiesterase PDE4,4%
same,% inh.,[1],15%
same,% inh.,[2],30%
same,Activity(%),Abl (M351T)(h),111%
same,Activity(%),Abl(Y253F)(h),102%
same,Activity(%),BIKe(h),112%
same,Activity(%),CaMKI(h),114%
same,Activity(%),CK1δ(h),96%
same,Activity(%),DAPK2(h),99%
same,Activity(%),DMPK(h),98%
same,Activity(%),EphA2(h),98%
same,Activity(%),JAK2(h),114%
same,Activity(%),KDR(h),113%
same,Activity(%),MAP4K3(h),98%
same,Activity(%),MOK(h),90%
same,Activity(%),PKA(h),84%
same,Activity(%),PKCθ(h),114%
same,Activity(%),TAO3(h),97%
same,Activity(%),Tec(h) activated,112%
same,Activity(%),ULK2(h),99%
same,Activity(%),WNK2(h),90%
same,Activity(%),PI3K (p110d/p85a)(h),100%
same,Activity(%),PI3K (p110b/p85a)(m),101%
